Laboratory results reported in patent US12594276B2, “Inhibitors of human immunodeficiency virus replication” (ViiV Healthcare UK (No.5) Limited, priority 2024, dated 2026).
pEC50: −log10 of the molar value.

Tests used:
[1] = test system: recombinant NL4-3 virus (nef section replaced with Renilla luciferase gene) in MT-2 cells; assay: HIV cell culture assay (antiviral activity, luciferase readout); type: cell-based; settings: Renilla, NL43, MT-2 cells infected for 4-5 days with recombinant NL4-3 Renilla luciferase virus
Procedure, shortened: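 MT-2 cells were infected for 4-5 days with reporter virus made by transfecting the recombinant NL4-3 proviral clone into 293T cells, in the presence of serial compound dilutions. Luciferase activity was read with a live-cell substrate. EC50 came from the exponential median effect equation, (Fa)=1/[1+(ED50/drug conc.)m].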

[2] = Compound cytotoxicity, XTT-based colorimetric assay; type: cell-based; settings: human; uninfected MT2 cells, day 4, XTT; read-out: CC50
Procedure, shortened: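 CC50 derived from XTT colorimetric signal measured on day 4 in MT2 cells that were not infected. All other steps followed the antiviral assay protocol.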

SMILES	pEC50 [1]	CC50 at 4 days [2]
Cc1cc(C2CCC(F)(F)CC2)nc2nc([C@H](Cc3cc(F)cc(F)c3)NC(=O)Cn3nc(C(F)F)c4c3C(F)(F)[C@@H]3C[C@H]43)n(-c3ccc(Cl)c4c(NS(C)(=O)=O)nn(CCN5C[C@@H](F)[C@@H](F)C5)c34)c(=O)c12 (atropisomer, axis not shown; (P)) [Example 267, N-[(1S)-1-[(3P)-3-(4-chloro-1-{2-[(3R,4S)-3,4-difluoropyrrolidin-1-yl]ethyl}-3-methanesulfonamido-1H-indazol-7-yl)-7-(4,4-difluorocyclohexyl)-5-methyl-4-oxo-3H,4H-pyrido[2,3-d]pyrimidin-2-yl]-2-(3,5-difluorophenyl)ethyl]-2-[(2S,4R)-9-(difluoromethyl)-5,5-difluoro-7,8-diazatricyclo[4.3.0.0^2,^4]nona-1(6),8-dien-7-yl]acetamide]	10.82	> 50 nM
Cc1cc(C2(F)CCC(F)(F)CC2)nc2nc([C@H](Cc3cc(F)cc(F)c3)NC(=O)Cn3nc(C4CC4)c4c3C[C@@H]3C[C@H]43)n(-c3ccc(Cl)c4c(NS(C)(=O)=O)nn(CCN5C[C@H](C)OC(C)(C)C5)c34)c(=O)c12 (atropisomer, axis not shown; (P)) [Example 583, N-[(1S)-1-[(3P)-3-(4-chloro-3-methanesulfonamido-1-{2-[(6S)-2,2,6-trimethylmorpholin-4-yl]ethyl}-1H-indazol-7-yl)-5-methyl-4-oxo-7-(1,4,4-trifluorocyclohexyl)-3H,4H-pyrido[2,3-d]pyrimidin-2-yl]-2-(3,5-difluorophenyl)ethyl]-2-[(2S,4S)-9-cyclopropyl-7,8-diazatricyclo[4.3.0.0^2,^4]nona-1(6),8-dien-7-yl]acetamide]	10.51	> 20 nM
Cc1cc(C2(F)CCC(F)(F)CC2)nc2nc([C@H](Cc3cc(F)cc(F)c3)NC(=O)Cn3nc(C4CC4)c4c3C[C@@H]3C[C@H]43)n(-c3ccc(Cl)c4c(NS(C)(=O)=O)nn(CCN5C[C@H]6CC[C@@H](C5)O6)c34)c(=O)c12 (atropisomer, axis not shown; (P)) [Example 592, N-[(1S)-1-[(3P)-3-(4-chloro-3-methanesulfonamido-1-{2-[(1R,5S)-8-oxa-3-azabicyclo[3.2.1]octan-3-yl]ethyl}-1H-indazol-7-yl)-5-methyl-4-oxo-7-(1,4,4-trifluorocyclohexyl)-3H,4H-pyrido[2,3-d]pyrimidin-2-yl]-2-(3,5-difluorophenyl)ethyl]-2-[(2S,4S)-9-cyclopropyl-7,8-diazatricyclo[4.3.0.0^2,^4]nona-1(6),8-dien-7-yl]acetamide]	11.22	> 20 nM
Cc1cc(C2CCC(F)(F)CC2)nc2nc([C@H](Cc3cc(F)cc(F)c3)NC(=O)Cn3nc(C4CC4)c4c3C[C@@H]3C[C@H]43)n(-c3ccc(Cl)c4c(NS(C)(=O)=O)nn(CCN5C[C@@H](F)[C@@H](F)C5)c34)c(=O)c12 (atropisomer, axis not shown; (P)) [Example 281, N-[(1S)-1-[(3P)-3-(4-chloro-1-{2-[(3R,4S)-3,4-difluoropyrrolidin-1-yl]ethyl}-3-methanesulfonamido-1H-indazol-7-yl)-7-(4,4-difluorocyclohexyl)-5-methyl-4-oxo-3H,4H-pyrido[2,3-d]pyrimidin-2-yl]-2-(3,5-difluorophenyl)ethyl]-2-[(2S,4S)-9-cyclopropyl-7,8-diazatricyclo[4.3.0.0^2,^4]nona-1(6),8-dien-7-yl]acetamide]	10.96	> 50 nM
COCCCn1nc(NS(C)(=O)=O)c2c(Cl)ccc(-n3c([C@H](Cc4cc(F)cc(F)c4)NC(=O)Cn4nc(C(F)F)c5c4C(F)(F)[C@@H]4C[C@H]54)nc4nc(C5CCC(F)(F)CC5)cc(NCCN5CCN(C)CC5)c4c3=O)c21 (atropisomer, axis not shown; (P)) [Example 535, N-[(1S)-1-[(3P)-3-[4-chloro-3-methanesulfonamido-1-(3-methoxypropyl)-1H-indazol-7-yl]-7-(4,4-difluorocyclohexyl)-5-{[2-(4-methylpiperazin-1-yl)ethyl]amino}-4-oxo-3H,4H-pyrido[2,3-d]pyrimidin-2-yl]-2-(3,5-difluorophenyl)ethyl]-2-[(2S,4R)-9-(difluoromethyl)-5,5-difluoro-7,8-diazatricyclo[4.3.0.0^2,^4]nona-1(6),8-dien-7-yl]acetamide]	10.24	> 20 nM
Cc1cc(C2CCC(F)(F)CC2)nc2nc([C@H](Cc3cc(F)cc(F)c3)NC(=O)Cn3nc(C4CC4)c4c3C[C@@H]3C[C@H]43)n(-c3ccc(Cl)c4c(NS(C)(=O)=O)nn(CCN5C[C@H]6CC[C@@H](C5)O6)c34)c(=O)c12 (atropisomer, axis not shown; (P)) [Example 4, N-[(1S)-1-[(3P)-3-(4-chloro-3-methanesulfonamido-1-{2-[(1R,5S)-8-oxa-3-azabicyclo[3.2.1]octan-3-yl]ethyl}-1H-indazol-7-yl)-7-(4,4-difluorocyclohexyl)-5-methyl-4-oxo-3H,4H-pyrido[2,3-d]pyrimidin-2-yl]-2-(3,5-difluorophenyl)ethyl]-2-[(2S,4S)-9-cyclopropyl-7,8-diazatricyclo[4.3.0.0^2,^4]nona-1(6),8-dien-7-yl]acetamide]	11.15	> 50 nM
COCCCn1nc(NS(C)(=O)=O)c2c(Cl)ccc(-n3c([C@H](Cc4cc(F)cc(F)c4)NC(=O)Cn4nc(C(F)F)c5c4C(F)(F)[C@@H]4C[C@H]54)nc4nc(C5CCC(F)(F)CC5)cc(NCC(C)(C)N5CCCCC5)c4c3=O)c21 (atropisomer, axis not shown; (P)) [Example 539, N-[(1S)-1-[(3P)-3-[4-chloro-3-methanesulfonamido-1-(3-methoxypropyl)-1H-indazol-7-yl]-7-(4,4-difluorocyclohexyl)-5-{[2-methyl-2-(piperidin-1-yl)propyl]amino}-4-oxo-3H,4H-pyrido[2,3-d]pyrimidin-2-yl]-2-(3,5-difluorophenyl)ethyl]-2-[(2S,4R)-9-(difluoromethyl)-5,5-difluoro-7,8-diazatricyclo[4.3.0.0^2,^4]nona-1(6),8-dien-7-yl]acetamide]	11.22	> 20 nM
COCCCn1nc(NS(C)(=O)=O)c2c(Cl)ccc(-n3c([C@H](Cc4cc(F)cc(F)c4)NC(=O)Cn4nc(C(F)(F)F)c5c4C[C@@H]4C[C@H]54)nc4nc(C5CCC(F)(F)CC5)cc(C)c4c3=O)c21 (atropisomer, axis not shown; (P)) [Example 88, N-[(1S)-1-[(3P)-3-[4-chloro-3-methanesulfonamido-1-(3-methoxypropyl)-1H-indazol-7-yl]-7-(4,4-difluorocyclohexyl)-5-methyl-4-oxo-3H,4H-pyrido[2,3-d]pyrimidin-2-yl]-2-(3,5-difluorophenyl)ethyl]-2-[(2S,4S)-9-(trifluoromethyl)-7,8-diazatricyclo[4.3.0.0^2,^4]nona-1(6),8-dien-7-yl]acetamide]	10.68	> 50 nM
Cc1cc(C2(F)CCC(F)(F)CC2)nc2nc([C@H](Cc3cc(F)cc(F)c3)NC(=O)Cn3nc(C(F)F)c4c3C(F)(F)[C@@H]3C[C@H]43)n(-c3ccc(Cl)c4c(NS(C)(=O)=O)nn(CCN5CCO[C@H](C(C)C)C5)c34)c(=O)c12 (atropisomer, axis not shown; (P)) [Example 575, N-[(1S)-1-[(3P)-3-(4-chloro-3-methanesulfonamido-1-{2-[(2R)-2-(propan-2-yl)morpholin-4-yl]ethyl}-1H-indazol-7-yl)-5-methyl-4-oxo-7-(1,4,4-trifluorocyclohexyl)-3H,4H-pyrido[2,3-d]pyrimidin-2-yl]-2-(3,5-difluorophenyl)ethyl]-2-[(2S,4R)-9-(difluoromethyl)-5,5-difluoro-7,8-diazatricyclo[4.3.0.0^2,^4]nona-1(6),8-dien-7-yl]acetamide]	10.92	> 20 nM
Cc1cc(C2CCC(F)(F)CC2)nc2nc([C@H](Cc3cc(F)cc(F)c3)NC(=O)Cn3nc(C4CC4)c4c3C[C@@H]3C[C@H]43)n(-c3ccc(Cl)c4c(NS(C)(=O)=O)nn(CCN5C[C@H](F)C[C@H](F)C5)c34)c(=O)c12 (atropisomer, axis not shown; (P)) [Example 1, N-[(1S)-1-[(3P)-3-(4-chloro-1-{2-[(3R,5S)-3,5-difluoropiperidin-1-yl]ethyl}-3-methanesulfonamido-1H-indazol-7-yl)-7-(4,4-difluorocyclohexyl)-5-methyl-4-oxo-3H,4H-pyrido[2,3-d]pyrimidin-2-yl]-2-(3,5-difluorophenyl)ethyl]-2-[(2S,4S)-9-cyclopropyl-7,8-diazatricyclo[4.3.0.0^2,^4]nona-1(6),8-dien-7-yl]acetamide]	11.05	> 50 nM
CS(=O)(=O)Nc1nn(CCN2CCC(F)(F)C2)c2c(-n3c([C@H](Cc4cc(F)cc(F)c4)NC(=O)Cn4nc(C5CC5)c5c4C[C@@H]4C[C@H]54)nc4nc(C5CCC(F)(F)CC5)ccc4c3=O)ccc(Cl)c12 (atropisomer, axis not shown; (P)) [Example 24, N-[(1S)-1-[(3P)-3-{4-chloro-1-[2-(3,3-difluoropyrrolidin-1-yl)ethyl]-3-methanesulfonamido-1H-indazol-7-yl}-7-(4,4-difluorocyclohexyl)-4-oxo-3H,4H-pyrido[2,3-d]pyrimidin-2-yl]-2-(3,5-difluorophenyl)ethyl]-2-[(2S,4S)-9-cyclopropyl-7,8-diazatricyclo[4.3.0.0^2,^4]nona-1(6),8-dien-7-yl]acetamide]	11.15	> 50 nM
